Patent US8815947B2, “Methods of treating metabolic disorders” (Case Western Reserve University, priority 2007, dated 2014)
Where two headings read alike, the source gives them in different places.

Key:
[1] = tested on: PPARβ/δ target genes FIAF, ADRP, and PDK-1; test: Q-PCR of endogenous PPARβ/δ target genes in HaCaT cells; type: cell-based, human; conditions: for expression of mRNA of PPARβ/δ target genes FIAF, ADRP and PDK-1: normalized to 18s mRNA
Method: (§1) FIG. 1C illustrates graphs showing the levels of mRNA of the PPARβ/δ target genes FIAF, ADRP, and PDK-1 expressed from HaCaT cells treated with the denoted ligands (0.1 μM, 4 hr). Levels of mRNA of the PPARβ/δ target genes FIAF, ADRP, and PDK-1 were analyzed by Q-PCR and normalized to 18s mRNA. FIG. 1D illustrate a graph showing the level of ADRP mRNA in HaCaT cells that were transfected with control siRNA or PPARβ/δ siRNA (24 hr.), and then treated with the denoted ligands (0.1 μM, 4 hr). ADRP mRNA was analyzed by QPCR and normalized to 18s mRNA. […] FIG. 1F illustrates a graph of the total activation of HaCaT cells transfected with a RARE-driven luciferase reporter. Cells were treated with RA at the denoted concentrations (15 hr), lysed, and luciferase activity measured and corrected for β-galactosidase activity. Data were normalized to the basal activity. […] FIG. 1G illustrates a graph of the level of expression of mRNA of the RAR target gene Cyp26α in cells that were treated with the denoted ligands. Expression of mRNA of the RAR target gene Cyp26α was analyzed by Q-PCR and normalized to 18s mRNA.
Quantitative real-time PCR (Q-PCR). RNA was extracted and cDNA generated using Gene Amp RNA PCR (Applied Biosystems, Foster City, Calif.). Q-PCR analyses for PDK-1 were conducted using TaqMan chemistry and Assays on Demand probes (Applied Biosystems, PDK1-Hs00176884_ml, ADRP-Hs00765634_ml, FIAF-Hs00211522_ml), Cyp26a-Hs01075671_gl, BTG2-Hs00198887_ml, cyclin D1 0 Hs00277039-ml. […] Analyses were carried out using the relative standard curve method (Applied Biosystems Technical Bulletin no. 2).

FABP5 [2] = target: T1, FABP5 (Homo sapiens, UniProt Q01469); test: Fluorescence-based binding assay (ANS titration and competition); set-up: GST; made in house; host or cells: E. coli BL21
Target sequence in this assay (Q01469 whole entry, species assumed): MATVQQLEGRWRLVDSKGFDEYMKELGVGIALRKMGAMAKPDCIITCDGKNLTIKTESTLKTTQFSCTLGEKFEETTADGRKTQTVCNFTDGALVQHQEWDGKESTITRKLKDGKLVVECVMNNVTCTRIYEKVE
Method: Binding assays were carried out by fluorescence titrations using a Fluorolog 2 DMIB spectrofluorometer (SPEX Instruments, Edison, N.J.). […] In the first step, Kd for the association of the protein with the fluorescent fatty acid probe ANS was measured. Protein (1 μM) was titrated with ANS from a concentrated solution in ethanol. Ligand binding was monitored by following the increase in the fluorescence of the ligand upon binding to the protein (λex-370 nm; λem-475 nm). Titration curves were analyzed (Norris and Li, 1998) to yield the number of binding sites and Kd. Kds for binding of non-fluorescent ligands were then measured by monitoring their ability to compete with fluorescent probes for binding. […] Kds were extracted from the EC50 of the competition curve and the measured Kd for the probe. Analyses were carried out using Origin 7.5 software (MicroCal Software Inc., Northampton, Mass.).

Akt = test: Immunoblots of phospho-Akt in HaCaT cells; type: cell-based, human; conditions: ligand 0.1 μM, 12 hr, immunoblot
Method: (§2) FIG. 1B illustrates a graph showing the results of the total activation of cells cotransfected with either control siRNA or siRNA for PPARβ/δ, and then treated with RA at the denoted concentrations. FIG. 1C illustrates graphs showing the levels of mRNA of the PPARβ/δ target genes FIAF, ADRP, and PDK-1 expressed from HaCaT cells treated with the denoted ligands (0.1 μM, 4 hr). Levels of mRNA of the PPARβ/δ target genes FIAF, ADRP, and PDK-1 were analyzed by Q-PCR and normalized to 18s mRNA. FIG. 1D illustrate a graph showing the level of ADRP mRNA in HaCaT cells that were transfected with control siRNA or PPARβ/δ siRNA (24 hr.), and then treated with the denoted ligands (0.1 μM, 4 hr). ADRP mRNA was analyzed by QPCR and normalized to 18s mRNA. Data are mean±SEM, n=3. FIG. 1E illustrates immunoblots of […], total Akt, and β-tubulin in cells treated with denoted ligands (0.1 μM, 12 hr). Data from a representative experiment, which was repeated 4 times with similar results are shown. FIG. 1F illustrates a graph of the total activation of HaCaT cells transfected with a RARE-driven luciferase reporter. Cells were treated with RA at the denoted concentrations (15 hr), lysed, and luciferase activity measured and corrected for β-galactosidase activity. […] Expression of mRNA of the RAR target gene Cyp26α was analyzed by Q-PCR and normalized to 18s mRNA. […]

GFP-FABP5 = target: T2, GFP-FABP5 (Homo sapiens, UniProt Q01469); test: Confocal fluorescence microscopy of GFP-FABP5 in live COS-7 cells; type: cell-based; conditions: ligand 1 μM, 30 min
T2 construct: expressed in transfected cells; host or cells: COS-7
Method: Images were acquired from live cells before and after a 30 min. treatment with RA (1 μM). […] Forty cells of each treatment group were analyzed (mean±SEM).
Confocal fluorescence microscopy. COS-7 cells were plated in 35 mm glass bottom microwell dishes (Mattek) in DMEM containing 5% charcoal-treated FBS (75,000 cells per plate), grown for 12 hr. and transfected using Fugene (Roche) with an expression vector harboring GFP-tagged FABP5 (EGFP, 250 ng DNA per plate). Following a 48 hr incubation, medium was replaced with serum-free DMEM, and live cells were imaged using a Leica TCS SP2 confocal microscope equipped with a 40× oil immersion lens. After imaging, cells were treated with ligands (1 μM), incubated at 37° C. for 30 min and imaged again. An average of 40 cells were analyzed using ImageJ (National Institute of Health).

RAR target gene Cyp26α = test: Q-PCR of RAR target gene Cyp26α in HaCaT cells; type: cell-based, human; conditions: normalized to 18s mRNA
Method: as §2, with “FIG. 1F illustrates a graph of the total activation of HaCaT cells transfected with a RARE-driven luciferase reporter.” left out
Quantitative real-time PCR (Q-PCR). […]

[3] = tested on: PPAR β/δ target genes PDK1 and FIAF; test: Real-time PCR of PDK1 and FIAF in cultured adipocytes; type: cell-based
Excerpt: We then used real-time PCR to examine the effects of these ligands on the expression of PDK1 and another known PPAR β/δ target gene, FIAF.

PPARβ/δ [4] = target: T3, PPARβ/δ (Homo sapiens, UniProt Q03181); test: Transactivation assay in COS-7 cells, PPRE reporter with PPARβ/δ expression vector; type: cell-based; set-up: expressed in transfected cells; host or cells: COS-7; conditions: COS-7 cells cotransfected with PPARβ/δ expression vector
T3 sequence (Q03181 1-441): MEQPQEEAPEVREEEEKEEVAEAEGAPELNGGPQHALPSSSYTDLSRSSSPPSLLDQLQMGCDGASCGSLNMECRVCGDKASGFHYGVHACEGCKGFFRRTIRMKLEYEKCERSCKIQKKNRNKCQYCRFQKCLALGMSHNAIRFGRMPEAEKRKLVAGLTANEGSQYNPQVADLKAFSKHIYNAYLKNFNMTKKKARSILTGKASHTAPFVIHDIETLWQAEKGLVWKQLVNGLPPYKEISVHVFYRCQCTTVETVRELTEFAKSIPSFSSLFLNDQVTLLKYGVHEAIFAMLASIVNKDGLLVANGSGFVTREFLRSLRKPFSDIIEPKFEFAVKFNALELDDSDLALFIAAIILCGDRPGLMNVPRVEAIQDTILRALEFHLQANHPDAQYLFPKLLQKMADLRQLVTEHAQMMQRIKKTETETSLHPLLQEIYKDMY
Method: (§3) Transactivation assays. Cells were cultured in 24-well plates and co-transfected with (PPRE)3-luciferase reporter vector (100 ng), a vector harboring the appropriate iLBP (in pCDNA 3.1, 200 ng), and pCH110, a β-galactosidase expression plasmid (50 ng). In some experiments, an expression vector encoding RAR or PPARβ/δ (in pSG5, 50 ng) was cotransfected. Transfections were carried out using Fugene (Roche Diagnostics Corporation) according to the protocol of the manufacturer. Twenty-four hours following transfection, medium was replaced by DMEM, and ligands were added (RA—in ethanol, other ligands—in dimethylsulfoxide). Following 24 hr of treatment, cells were lysed and lysates assayed for luciferase activity (Luciferase assay system, Promega) which was corrected for β-galactosidase activity. Experiments were carried out in triplicates.

PPARβ/δ [5] = target: T3, PPARβ/δ; test: Transactivation assay, PPRE-driven luciferase reporter in HaCaT cells; type: cell-based; set-up: endogenous in cells; host or cells: HaCaT
Method: The ability of RA to activate PPARβ/δ in the human keratinocyte cell line HaCaT was examined. Transactivation assays were conducted in HaCaT cells transfected with a PPRE-driven luciferase reporter. Cells were treated with the ligands denoted in FIG. 1 for 15 hours, lysed and luciferase activity was measured and corrected for β-galactosidase activity. Data was normalized to the basal activity. Data are mean±SEM, n=3
as §3

FABP5 [6] = target: T1, FABP5; test: Subcellular fractionation and immunoblot of endogenous FABP5 in HaCaT cells; type: cell-based; set-up: To monitor the effects of ligands on the localization of endogenous FABP5 in HaCaT cells; endogenous in cells; host or cells: HaCaT; conditions: ligand 1 μM, 30 min, subcellular fractionation
Target sequence in this assay (Q01469 whole entry): as the sequence (Q01469 whole entry, species assumed) above
Method: FIG. 2C illustrates an immunoblot of HaCaT cells treated with denoted RA or with stearic acid (1 μM, 30 min.). Nuclei were separated from cytosol by subcellular fractionation (Calbiochem ProtoExtract Subcellular Proteome Extraction kit) and analyzed for the presence of FABP5 by immunoblots.
The subcellular localization of FABP5 was then examined. […] To monitor the effects of ligands on the localization of endogenous FABP5 in HaCaT cells, cells were treated with vehicle, RA, or stearate, subjected to subcellular fractionation, and the presence of FABP5 in cytosol and in nuclei examined by immunoblots (FIG. 2C).

[7] = tested on: obese mice fed a high fat/high sucrose diet; test: Diet-induced mouse model of obesity, systemic RA treatment; type: in vivo
Method: We have now completed a pilot experiment to examine the notion that all-trans-retinoic acid (RA) suppresses obesity and insulin resistance. Experiments were carried out using both cultured adipocytes and a diet-induced mouse model of obesity.
For the in vivo experiments, C57BU6J mice were fed a high fat/high sucrose diet for 16 weeks, when they weighed 1.5 fold more than a cohort fed a standard diet. […] Obese mice were separated into two groups. Both groups were continually maintained on the high fat/high sucrose diet, and one of them was systemically treated with RA.
An important measure of insulin sensitivity is the ability of an animal to clear glucose from plasma. This parameter is assessed by glucose tolerance tests (GTT) in which glucose is administered to the mice and the kinetics of its clearance from blood measured.

RAR = test: Transactivation assay, RARE-driven luciferase reporter in HaCaT cells; type: cell-based, human; conditions: RA 15 hr
Method: as §1
Transactivation assays. Cells were cultured in 24-well plates and co-transfected with (PPRE)3-luciferase reporter vector (100 ng), a vector harboring the appropriate iLBP (in pCDNA 3.1, 200 ng), and pCH110, a β-galactosidase expression plasmid (50 ng). […]

[8] = obese mice on high fat diet, RA treated

T2 sequence (Q01469 whole entry): as the sequence (Q01469 whole entry, species assumed) above

CC1=C(/C=C/C(C)=C\C=C\C(C)=C\C(=O)O)C(C)(C)CCC1 [9-cis-RA]
expression of mRNA of PPARβ/δ target genes FIAF, ADRP and PDK-1 ([1]; ligand 0.1 μM, 4 hr): modest response

O=S(=O)(O)c1cccc2cccc(Nc3ccccc3)c12 [ANS, Anilinonaphtalene-8-sulphonic acid]
Kd (FABP5 [2]; mean±SD, n=3, protein 1 μM titrated with probe, read-out: Kd for FABP5, direct fluorescence titration): 57 ± 7.3 nM

Cc1cc(SCc2sc(-c3ccc(C(F)(F)F)c(F)c3)nc2C)ccc1OCC(=O)O [GW0742]
phosphorylation level of Akt (Akt): significantly increased
subcellular distribution of GFP-FABP5 (nuclear/cytoplasmic) (GFP-FABP5): distinct shift of the protein into the nucleus
Kd (FABP5 [2]): 42.3 ± 4.5 nM

CC1=C(/C=C/C(C)=C/C=C/C(C)=C/C(=O)O)C(C)(C)CCC1 [RA, all-trans-retinoic acid]
expression of mRNA for CYP26α (RAR target gene Cyp26α): efficiently upregulated
phosphorylation level of Akt (Akt): significantly increased
expression of FIAF and PDK1 mRNA [3]: enhanced the expression of these genes
subcellular distribution of GFP-FABP5 (nuclear/cytoplasmic) (GFP-FABP5): distinct shift of the protein into the nucleus
Kd (FABP5 [2]; mean±SD, n=3, extracted from EC50 of competition curve and Kd of probe, read-out: Kd for FABP5, fluorescence competition titration against ANS): 34.8 ± 6.6 nM
expression of PPRE-driven reporter (PPARβ/δ [4]): enhanced the expression of the PPRE-driven reporter in a dose-responsive manner
RA-induced PPRE reporter response after PPARβ/δ siRNA (PPARβ/δ [5]; PPARβ/δ expression decreased by about 80% by siRNA): markedly suppressed
transcription of the PPRE-driven luciferase reporter (PPARβ/δ [5]; ligand 15 hours, GW0742/TTNPB 1 μM, RA at several concentrations): enhanced the expression of the PPRE-driven reporter and did so in a dose responsive manner
nuclear localization of endogenous FABP5 (FABP5 [6]): accumulates in the nucleus
hepatic lipid accumulation (steatosis) ([7]; livers of mice fed a high fat diet and treated with RA): all but devoid of lipid stores
weight of fat tissue (white adipose tissue) [7, 8]: decreased by over two fold
weights of liver, skeletal muscle or brown adipose tissue (BAT) [7, 8]: without affecting
food consumption ([7]; obese mice on high fat diet, RA treated vs non-treated cohort): higher than that of the non-treated cohort
loss of body weight ([7]; obese mice on high fat/high sucrose diet, five week RA treatment, 0.16 mg/day systemic): ~15%
induction of ADRP mRNA after PPARβ/δ siRNA ([1]; 80% decrease in PPARβ/δ expression, ligand 0.1 μM, 4 hr): significantly hampered
induction of ADRP mRNA after FABP5 siRNA ([1]; about 80% decrease in FABP5 protein): markedly attenuated
expression of mRNA of PPARβ/δ target genes FIAF, ADRP and PDK-1 ([1]; ligand 0.1 μM, 4 hr): upregulated the expression of mRNA for all three
expression of RARE-driven luciferase reporter (RAR): upregulated the expression of a reporter gene construct

C/C(=C\c1ccc(C(=O)O)cc1)c1ccc2c(c1)C(C)(C)CCC2(C)C [TTNPB, 4-[(E)-2-(5,6,7,8-Tetrahydro-5,5,8,8-tetramethyl-2-naphthalenyl)-1-propenyl]benzoic acid]
expression of FIAF and PDK1 mRNA [3]: down-regulation of the two genes
expression of mRNA of PPARβ/δ target genes FIAF, ADRP and PDK-1 ([1]; ligand 0.1 μM, 4 hr): little effect

CCCCCCCCCCCCCCCCCC(=O)O [stearic acid]
subcellular distribution of GFP-FABP5 (nuclear/cytoplasmic) (GFP-FABP5): did not affect the subcellular distribution
